Assay results as given in BindingDB's records for doi:10.1021/jm040037k (Abbott Laboratories, 2004).
pKd: −log10 of the molar value. Square brackets hold non-standard residues; d marks the D form. Peptide text beside a SMILES is read from it. * marks the point of attachment. Tle = CC(C)(C)[C@H](N)C(=O)O; NMeA = CN[C@@H](C)C(=O)O; βNA = c1ccc2cc(N*)ccc2c1

Target: T1, E3 ubiquitin-protein ligase XIAP [241-356] (Homo sapiens, UniProt P98170)
T1 construct: 241-356
Assay: Ligand Binding Assay
Settings: pH 7.4; 22 °C
Method: A fluorescence polarization anisotropy (FPA) competition assay was used to determine the affinities of compounds to BIR3 protein. Fluorescence polarization measurements were carried out on an Analyst 96-well plate reader. 6-Carboxyfluorescein (FAM) labeled peptides with the sequences AVPIAQK (FAM)-NH2 was used as a probe. Dissociation constants were determined from titration curves with in-house written software.

T1 sequence (P98170 241-356): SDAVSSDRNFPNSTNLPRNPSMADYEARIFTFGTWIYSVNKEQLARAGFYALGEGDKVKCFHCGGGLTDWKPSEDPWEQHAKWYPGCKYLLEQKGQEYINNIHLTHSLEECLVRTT

| Compound | pKd |
| --- | --- |
| C[C@@H](C(=O)N[C@H](C(=O)N1CCC[C@H]1C(=O)N[C@@H]1CCCc2ccccc21)C(C)(C)C)N(C)C [(2S)-1-[(2S)-2-[(2S)-2-(dimethylamino)propanamido]-3,3-dimethylbutanoyl]-N-[(1R)-1,2,3,4-tetrahydronaphthalen-1-yl]pyrrolidine-2-carboxamide] | < 6.00 |
| C[C@@H](C(=O)N[C@H](C(=O)N1CCC[C@H]1C(=O)N[C@@H]1CCCc2ccccc21)C1CCCCC1)N(C)C [(2S)-1-[(2S)-2-cyclohexyl-2-[(2S)-2-(dimethylamino)propanamido]acetyl]-N-[(1R)-1,2,3,4-tetrahydronaphthalen-1-yl]pyrrolidine-2-carboxamide] | < 6.00 |
| CN[C@@H](C)C(=O)N[C@H](C(=O)N1CCC[C@H]1C(=O)Nc1ccc2ccccc2c1)C(C)(C)C [(2S)-1-[(2S)-3,3-dimethyl-2-[(2S)-2-(methylamino)propanamido]butanoyl]-N-(naphthalen-2-yl)pyrrolidine-2-carboxamide] (H-[NMeA]-[Tle]-Pro-βNA) | < 6.00 |
| CN[C@@H](C)C(=O)N[C@H](C(=O)N1CCC[C@H]1C(=O)N[C@@H]1CCc2ccccc21)C(C)(C)C [(2S)-N-[(1R)-2,3-dihydro-1H-inden-1-yl]-1-[(2S)-3,3-dimethyl-2-[(2S)-2-(methylamino)propanamido]butanoyl]pyrrolidine-2-carboxamide] | 7.54 |
| C[C@@H](C(=O)N[C@H](C(=O)N1C[C@@H](Oc2ccccc2)C[C@H]1C(=O)N[C@@H]1CCCc2ccccc21)C(C)(C)C)N(C)C [(2S,4S)-1-[(2S)-2-[(2S)-2-(dimethylamino)propanamido]-3,3-dimethylbutanoyl]-4-phenoxy-N-[(1R)-1,2,3,4-tetrahydronaphthalen-1-yl]pyrrolidine-2-carboxamide] | < 6.00 |
| CN[C@@H](C)C(=O)N[C@H](C(=O)N1CCC[C@H]1C(=O)N[C@H]1CCc2ccccc21)C(C)(C)C [H-N-Me-Ala-Tle-Pro-(S)-indan-1-yl Amide] | < 6.00 |
| CN[C@@H](C)C(=O)N[C@H](C(=O)N1CCC[C@H]1C(=O)NC1c2ccccc2-c2ccccc21)C(C)(C)C [H-N-Me-Ala-Tle-Pro-fluoren-9-yl Amide] | 7.33 |
| CN[C@@H](C)C(=O)N[C@H](C(=O)N1CCC[C@H]1C(=O)Nc1cccc2ccccc12)C(C)(C)C [H-N-Me-Ala-Tle-Pro-naphth-1-yl Amide] | < 6.30 |
